In the supplement of paper PMC13380429:
± gives the standard deviation of the averaged measurements.

Assays:
Settings in all cases: 72 h
[1] = tested on: HepG2; experiment: cell viability relative to DMSO; higher = less toxic
[2] = tested on: U2OS; experiment: as above
[3] = tested on: Vero E6; experiment: as above
[4] = tested on: Caco-2; experiment: as above
[5] = tested on: Calu-3; experiment: as above
[6] = tested on: HepG2; experiment: relative viability EC50 (midpoint between 100% and the lowest measured viability); higher = less toxic
[7] = tested on: U2OS; experiment: as above
[8] = tested on: Vero E6; experiment: as above
[9] = tested on: Caco-2; experiment: as above
[10] = tested on: Calu-3; experiment: as above
[11] = tested on: HepG2; experiment: drug sensitivity score (DSS) for viability; higher = more toxic; extreme values may be limits of the assay
[12] = tested on: U2OS; experiment: as above
[13] = tested on: Vero E6; experiment: as above
[14] = tested on: Caco-2; experiment: as above
[15] = tested on: Calu-3; experiment: as above

Compound	cell viability ([1]; 1 nM)	cell viability ([1]; 10 nM)	cell viability ([1]; 100 nM)	cell viability ([1]; 1000 nM)	cell viability ([1]; 10000 nM)	cell viability ([2]; 1 nM)	cell viability ([2]; 10 nM)	cell viability ([2]; 100 nM)	cell viability ([2]; 1000 nM)	cell viability ([2]; 10000 nM)	cell viability ([3]; 1 nM)	cell viability ([3]; 10 nM)	cell viability ([3]; 100 nM)	cell viability ([3]; 1000 nM)	cell viability ([3]; 10000 nM)	cell viability ([4]; 1 nM)	cell viability ([4]; 10 nM)	cell viability ([4]; 100 nM)	cell viability ([4]; 1000 nM)	cell viability ([4]; 10000 nM)	cell viability ([5]; 1 nM)	cell viability ([5]; 10 nM)	cell viability ([5]; 100 nM)	cell viability ([5]; 1000 nM)	cell viability ([5]; 10000 nM)	relative viability EC50 [6]	relative viability EC50 [7]	relative viability EC50 [8]	relative viability EC50 [9]	relative viability EC50 [10]	drug sensitivity score [11]	drug sensitivity score [12]	drug sensitivity score [13]	drug sensitivity score [14]	drug sensitivity score [15]
CN(C)c1ccc(/C=C2\CCCN=C2c2cccnc2)cc1 [DMAB-anabaseine]	109%	90.2%	98.2%	99.7%	87.4%	94.2%	96.4%	97.4%	94.4%	93.6%	105%	92.4%	99.3%	93.5%	91.5%	103%	107%	103%	120%	76.2%	101%	109%	139%	105%	88.8%	> 10 µM	> 10 µM	> 10 µM	> 10 µM	> 10 µM	0.1	0	0	0.4	0
CS(=O)(=O)c1ccc(-c2cc(Br)sc2-c2ccc(F)cc2)cc1 [DUP-697]	103%	107%	105%	104%	79.5%	103%	98.1%	103%	105%	104%	95.6%	101%	93.4%	96.5%	97.8%	110%	95.1%	102%	104%	88.2%	97.2%	98%	103%	112%	114%	> 10 µM	> 10 µM	> 10 µM	> 10 µM	> 10 µM	0.4	0	0	0	0
COc1c(C)cnc(Cn2cc(C#CCC(C)(C)O)c3c(Cl)nc(N)nc32)c1C [EC-144]	96.4%	103%	32.3%	1.2%	1.3%	110%	107%	94.5%	9.2%	3.5%	99.3%	102%	105%	37.3%	32.8%	105%	97.3%	88.8%	33.1%	39.9%	104%	108%	84.3%	39.4%	49.5%	0.0735 µM	0.319 µM	0.413 µM	0.189 µM	0.152 µM	25.6	17.3	11.3	14.2	13.6
CCOC(=O)c1ncn2c1[C@@H]1CCCN1C(=O)c1cc(OC)ccc1-2 [L-655,708]	90.7%	100%	104%	98.7%	106%	100%	98.9%	97.5%	99.2%	104%	94.6%	95%	92.3%	97.9%	111%	97.8%	95.8%	118%	95.1%	107%	101%	88%	96.3%	96.7%	105%	> 10 µM	> 10 µM	> 10 µM	> 10 µM	> 10 µM	0	0	0	0	0
NCCCC[C@H](N)C(=O)O [L-lysine]	111%	102%	103%	93.2%	114%	103%	96.7%	101%	97.5%	99.5%	108%	106%	99.6%	98.8%	104%	110%	102%	96.8%	86%	106%	92.7%	102%	106%	97.7%	105%	> 10 µM	> 10 µM	> 10 µM	> 10 µM	> 10 µM	0	0	0	0	0
O=C(O)C[C@H]1CC[C@H](c2ccc(-c3ccc(Nc4ccc(C(F)(F)F)nc4)cn3)cc2)CC1 [LCQ908]	99.4%	102%	108%	93.5%	99.8%	95.7%	102%	97%	102%	90.5%	105%	104%	103%	100%	104%	104%	102%	98.3%	100%	92.4%	92.1%	103%	95%	95.7%	95.5%	> 10 µM	> 10 µM	> 10 µM	> 10 µM	> 10 µM	0	0	0	0	0
COc1cccc(-c2ccc([C@@H](Oc3cc(-c4ccc(C[C@H](N)C(=O)O)cc4)nc(N)n3)C(F)(F)F)cc2)c1 [LX1031]	111%	100%	111%	99.3%	102%	96.4%	93.4%	95.2%	102%	99.9%	105%	89.6%	101%	98.8%	106%	91.5%	96.7%	94.1%	92.9%	101%	99.3%	98.2%	102%	97.3%	103%	> 10 µM	> 10 µM	> 10 µM	> 10 µM	> 10 µM	0	0	0	0	0
COc1cc(CN(CCN)C(=O)c2cccs2)ccc1OCc1ccccc1 [M8-B]	99.8%	96.5%	91.1%	110%	96.2%	95.1%	97.6%	102%	95.7%	95.4%	94.8%	94.1%	97.2%	98%	102%	89.5%	98.4%	101%	95.6%	89.1%	103%	89.1%	108%	99.7%	98.5%	> 10 µM	> 10 µM	> 10 µM	> 10 µM	> 10 µM	0	0	0	0.1	0
C=CCn1c(=O)c2cnc(Nc3ccc(N4CCN(C)CC4)cc3)nc2n1-c1cccc(C(C)(C)O)n1 [MK-1775]	99%	89.5%	91.2%	33.3%	10.2%	102%	95.7%	97.6%	21.3%	5.8%	100%	94.7%	94.1%	57.4%	14.2%	106%	99.4%	96.1%	35.4%	25.9%	108%	93.4%	70.8%	50.9%	28.8%	0.466 µM	0.49 µM	0.981 µM	0.399 µM	0.218 µM	13.8	14.7	9.7	12.4	13.1
O=C(O)Cn1nnc(-c2cc(N3CCC(Oc4cc(F)ccc4Br)CC3)no2)n1 [MK-8245]	109%	95.8%	88.3%	88.8%	76.1%	103%	102%	96.2%	101%	98.6%	98.3%	94.8%	98.8%	92.2%	86.3%	101%	106%	99.5%	102%	94.8%	102%	108%	97.7%	90.8%	96.5%	> 10 µM	> 10 µM	> 10 µM	> 10 µM	> 10 µM	2.2	0	0.1	0	0
c1ccc(-c2ccc(CNc3nc(-c4ccccn4)nnc3-c3ccccc3)cc2)cc1 [ML228]	91.4%	104%	103%	31.4%	21%	100%	99.1%	94.3%	38.8%	3.6%	93.1%	92.3%	97%	9.5%	4.5%	104%	98.2%	89.3%	49.5%	13.6%	96%	102%	101%	48.6%	17.5%	0.484 µM	0.685 µM	0.339 µM	0.692 µM	0.818 µM	12.5	12.8	16.9	11.2	10.7
COc1ccc(-c2cnc3c(-c4cccc5ncccc45)cnn3c2)cc1 [ML347]	105 ± 4%	96 ± 9.3%	99.3 ± 3.2%	98.1 ± 0.57%	97.2 ± 6.9%	101 ± 2%	100 ± 3.1%	105 ± 6.3%	102 ± 1.8%	96.8 ± 4.3%	102%	100%	99%	99.3%	105%	107 ± 14%	100 ± 5.3%	96.5 ± 2%	96.05 ± 0.35%	98.9 ± 8.6%	106 ± 9.3%	101 ± 7.9%	99.5 ± 2.8%	101 ± 4.9%	93.4 ± 8.5%	> 10 µM	> 10 µM	> 10 µM	> 10 µM	> 10 µM	0	0	0	0	0.1 ± 0.14
NC(=O)C[S+]([O-])C(c1ccccc1)c1ccccc1 (stereo not given) [MODAFINIL]	102 ± 17%	103 ± 1.9%	99.2 ± 12%	96.1 ± 15%	95.3 ± 4.4%	99.2 ± 1.5%	97.8 ± 2.8%	99.7 ± 2.9%	98.2 ± 3%	100 ± 4.6%	97.3 ± 6%	103 ± 14%	96.2 ± 15%	88.6 ± 4%	104 ± 5.5%	103 ± 3.7%	99.5 ± 2.2%	109 ± 10%	100.4 ± 0.42%	97 ± 2.3%	93 ± 6.5%	99.4 ± 0.57%	99.3 ± 6.7%	102.2 ± 0.35%	95.8 ± 7.3%	> 10 µM	> 10 µM	> 10 µM	> 10 µM	> 10 µM	0.55 ± 0.78	0	0	0	0
Cc1nc2c(O)cccc2c(=O)[nH]1 [NU-1025]	104%	109%	98.4%	109%	101%	104%	100%	100%	99.9%	101%	99.7%	102%	98.7%	100%	98.1%	101%	92.4%	96.6%	96.7%	101%	96.6%	99.6%	102%	106%	99.8%	> 10 µM	> 10 µM	> 10 µM	> 10 µM	> 10 µM	0	0	0	0	0
CCCCCCCC/C=C\CCCCCCCC(=O)N[C@@H](CO)Cc1ccc(O)cc1 [OMDM-2]	100%	93.3%	114%	106%	99.6%	96.8%	101%	96.7%	100%	99.7%	92.4%	92%	97.4%	93.7%	109%	87.1%	94.4%	97.1%	91.8%	102%	106%	102%	99.5%	96.7%	97.3%	> 10 µM	> 10 µM	> 10 µM	> 10 µM	> 10 µM	0	0	0	0	0
